In US20190262355A1, “COMBINATION OF A BRD4 INHIBITOR AND AN ANTIFOLATE FOR THE THERAPY OF CANCER” (CeMM-Forschungszentrum für Molekulare Medizin GmbH, priority 2016, published 2019):

How the values were obtained:
A549 cells = test: Cell viability of A549 cells after MTHFD1 knock-down; format: cell-based; settings: 72 hours (S)-JQ1 (FIG. 21A)
Experimental: KBM7 (human chronic myelogenous leukemia cell lines), MV4-11 (biphenotypic B myelomonocytic leukemia), MEG-01 (human chronic myelogenous leukemia), K-562 (human chronic myelogenous leukemia) and HAP1 (KBM7-derived) cell lines were cultured in Iscove's Modified Dulbecco's Medium (IMDM, Gibco), supplemented with 10% Fetal Bovine Serum (FBS; Gibco). HEK293T (human embryonic kidney) and HELA (cervix adenocarcinoma) cell lines were cultured in Dulbecco's Modified Eagles Medium (DMEM, Gibco) supplemented with 10% FBS. MOLM-13 (human acute monocytic leukemia), NOMO-1 (human acute monocytic leukemia) and A549 (lung carcinoma) cell lines were cultured in RPMI-1640 (Roswell Park Memorial Institute, Gibco) supplemented with 10% FBS. All the mentioned cell lines were incubated in 5% CO2 atmosphere at 37° C.

A549 xenograft = A549 xenograft mouse model; format: in vivo; settings: NOD SCID gamma mice; 30 mg/kg (S)-JQ1 i.p. five times per week and/or 25 mg/kg MTX i.p. twice weekly from day 19 to day 43 (FIG. 21B-D)
Experimental: Mouse xenograft studies were performed as described previously^35. 2×10^6 A549 cells, diluted 1:1 in matrigel, were transplanted subcutaneously into NOD SCID gamma mice. Treatment (30 mg/kg (S)-JQ1 by intraperitoneal injection five times per week, and 25 mg/kg MTX per intraperitoneal injection twice weekly) was started when tumors were established, 19 days post transplantation. Tumor volumes were evaluated twice a week by measuring two perpendicular diameters with calipers. Tumor volume was calculated using the following equation: (width*width*length)/2. Treatment was performed according to an animal licence protocol approved by the Bundesministerium für Wissenschaft and Forschung (BMWF-66.009/0280-II/3b/2012). At day 43 mice were sacrificed and tumors excised and weighted.

BRD4-MTHFD1 interaction = target: T1, BRD4-MTHFD1 interaction (Homo sapiens, UniProt O60885+P11586); test: MTHFD1 pull-down on HAP1 whole cell lysates (BRD4-MTHFD1 interaction); format: binding; settings: HAP1 whole cell lysates treated with 50 μM (FIG. 9I)
T1 construct: MTHFD1 pull-down performed on HAP1 whole cell lysates treated with 50 μM (S)-JQ1, MTX; endogenous in cells; host or cells: HAP1
T1 sequence (P11586 whole entry, other chains not shown): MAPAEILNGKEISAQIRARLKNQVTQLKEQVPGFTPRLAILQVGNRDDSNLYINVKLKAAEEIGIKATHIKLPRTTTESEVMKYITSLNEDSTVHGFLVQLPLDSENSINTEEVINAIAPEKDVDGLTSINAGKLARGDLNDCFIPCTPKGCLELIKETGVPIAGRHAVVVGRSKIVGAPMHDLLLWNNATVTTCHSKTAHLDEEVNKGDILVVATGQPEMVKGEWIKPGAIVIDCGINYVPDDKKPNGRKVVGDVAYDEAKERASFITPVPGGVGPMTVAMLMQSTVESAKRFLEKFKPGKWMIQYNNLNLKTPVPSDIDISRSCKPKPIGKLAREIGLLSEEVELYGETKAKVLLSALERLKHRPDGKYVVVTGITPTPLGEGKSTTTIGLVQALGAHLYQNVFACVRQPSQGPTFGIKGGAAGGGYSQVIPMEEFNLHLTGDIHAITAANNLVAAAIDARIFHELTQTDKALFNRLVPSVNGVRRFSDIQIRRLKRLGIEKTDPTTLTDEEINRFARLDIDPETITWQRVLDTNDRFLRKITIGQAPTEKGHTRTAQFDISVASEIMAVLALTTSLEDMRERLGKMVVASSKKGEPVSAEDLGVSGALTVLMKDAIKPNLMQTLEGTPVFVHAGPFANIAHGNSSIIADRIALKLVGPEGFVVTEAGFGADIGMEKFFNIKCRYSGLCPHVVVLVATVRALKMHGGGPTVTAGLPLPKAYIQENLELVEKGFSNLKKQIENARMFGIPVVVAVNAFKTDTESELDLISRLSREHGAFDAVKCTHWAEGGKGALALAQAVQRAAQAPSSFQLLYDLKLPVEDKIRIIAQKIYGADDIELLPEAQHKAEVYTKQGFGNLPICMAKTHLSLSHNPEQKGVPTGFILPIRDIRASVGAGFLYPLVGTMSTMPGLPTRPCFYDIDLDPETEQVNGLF
Experimental: For immunoprecipitation, 1 mg of protein extract was incubated overnight at 4° C. with 10 μl of Dynabeads (either A or G, Life technology) preincubated for 2 hours at 4° C. with 1 μg of BRD4 (ab128874, Abcam), MTHFD1 (A8, Santa Cruz) or GFP (G10362, Life Technology) antibodies.

[1] = test system: panel of six cell lines (four not sensitive to BRD4 inhibition, plus KBM7 and HAP1); test: Cell viability of cancer cell lines, single agents and combination; format: cell-based, human; settings: NOMO-1 the most sensitive to MTX (FIG. 13A, 13B)
Experimental: HEK293T (human embryonic kidney) and HELA (cervix adenocarcinoma) cell lines were cultured in Dulbecco's Modified Eagles Medium (DMEM, Gibco) supplemented with 10% FBS. […] All the mentioned cell lines were incubated in 5% CO2 atmosphere at 37° C.

WT-KBM7 cells = test: Cell cycle profile by PI staining and FACS (diploidization); format: cell-based, human; settings: treated overnight during one week, PI incorporation and FACS (FIG. 6D)
Experimental: For cell cycle analysis, 1 million cells were fixed with 70% ethanol for 24 hours, washed with PBS/1% BSA/0.1% Tween and incubated with RNase for 30 minutes. Nuclei were stained with 5 μg/ml PI (propidium iodide, Sigma) for 10 minutes prior to FACS analysis (BD FACSCalibur Flow Cytometer).
The prerequisite for effective GT genetic screens is a haploid system where monoallelic disruptive GT integration results in gene knock-out (KO). Therefore, KBM7 cells, a chronic myeloid leukemia cell line with near haploid karyotype, were chosen for the generation of the BRD4 reporter cell lines as previously described^15. […] Propidium iodide (PI) incorporation and FACS analysis were used to assay the cell cycle profile of several REDS clones in order to select a haploid clone suitable for GT-based genetic screen. […] REDS1 was the only clonal cell line with haploid karyotype (see FIG. 6B), also confirmed by metaphase spreads (see FIG. 6C).

BRD4 = test: REDS reporter cell line, RFP expression (Redness) on BRD4 inhibition; format: cell-based, human
Excerpt: Live cell imaging pictures were taken from cells seeded on clear flat bottom 96-well or 384-well plates (Corning), with the Operetta High Content Screening System (PerkinElmer), 20× objective and non-confocal mode. RFP quantification was done using the basic PerkinElmer software for nuclei detection and analysis, adapted for the nucleus diameter range of the specific cell line used (KBM7, 13 μm). Only RFP positive nuclei were detected and counted.
The prerequisite for effective GT genetic screens is a haploid system where monoallelic disruptive GT integration results in gene knock-out (KO). Therefore, KBM7 cells, a chronic myeloid leukemia cell line with near haploid karyotype, were chosen for the generation of the BRD4 reporter cell lines as previously described^15. […] Propidium iodide (PI) incorporation and FACS analysis were used to assay the cell cycle profile of several REDS clones in order to select a haploid clone suitable for GT-based genetic screen.
The suitability of the REDS1 clone for a GT-based genetic screen was then further validated.

nuclear folate pool = test: Folate metabolites in nuclear and cytosolic fractions of HAP1 cells (LC-MS/MS); format: cell-based, human; settings: 6 hours, MTX and (S)-JQ1 1 μM, dBET6 0.5 μM (FIG. 19B)
Experimental: In order to quantify folates in the nuclear and cytosolic fractions, 20 millions of HAP1 cells per condition were washed twice with cold PBS, and collected into 50 ml falcon tube by centrifugation for 5 minutes at 280 g and 4° C. Cell lysis was performed on ice in the dark by incubating cell pellets with 1:5 hypotonic lysis buffer for 10 minutes. Nuclei were collected by centrifugation for 5 minutes at 420 g and 4° C. Supernatants (cytosolic fractions) were also collected. Both fractions were immediately snap frozen. For nucleus samples, 10 μL of ISTD mixture was added to nucleus pellet in 1.5 mL Eppendorf tube followed by addition of 145 μL of ice-cold extraction solvent (10 mg/mL ascorbic acid solution in 80% methanol, 20% water, v/v). The samples were vortexed for 10 seconds, afterwards incubated on ice for 3 min and vortexed again for 10 seconds. After centrifugation (14000 rpm, 10 min, 4° C.), the supernatant was collected into HPLC vials. […] An Acquity UHPLC system (Waters) coupled with Xevo TQ-MS (Waters) triple quadrupole mass spectrometer was used for quantitative analysis of metabolites. […] Quantification of all metabolites was performed using MassLynx V4.1 software from Waters. The seven-point linear calibration curves with internal standardization and 1/× weighing was constructed for the quantification.

chromatin-bound BRD4 = target: T2, chromatin-bound BRD4 (Homo sapiens, UniProt O60885); test: Western blot of chromatin associated proteins: BRD4; format: cell-based; settings: HAP1 cells, MTX 1 μM, 2 or 24 hours (FIG. 2C)
T2 construct: Western Blot assay performed on chromatin associated protein samples extracted from HAP1 cells treated with the indicated compounds; endogenous in cells; host or cells: HAP1
Experimental: Cell fractionation and chromatin enrichment was carried out as previously described^29 with some adaptations. Briefly, for 100 million cells, the chromatin enriched pellet was taken up in 250 μl benzonase digestion buffer (15 mM HEPES, 1 mM EDTA, 1 mM EGTA, 0.1% NP40, protease inhibitor cocktail (cOmplete, Roche)) after washing, and sonicated for 120 seconds on the Covaris S220 focused-ultrasonicator with the following settings: Peak Power 140; Duty-Factor 10.0; Cycles/Burst 200. After addition of 0.25 U benzonase and 2.5 μg RNase, the chromatin was incubated for 40 minutes at 4° C. on a rotary shaker. 2× SDS lysis buffer (100 mM HEPES, 4% SDS, 2 mM PMSF and protease inhibitor cocktail (cOmplete, Roche)) was added to the samples in a 1:1 ratio and incubated for 10 minutes at room temperature followed by 5 minutes denaturation at 99° C. After centrifugation at 16,000 g for 10 minutes at room temperature, the supernatant was transferred to a new tube.

[2] = test system: MTHFD1 nuclear localization; test: Nuclear vs cytosol fractionation Western blot in HAP1 cells; format: cell-based, human; settings: MTX 1 μM, 24 hours (FIG. 2D)
Experimental: For Western Blot, proteins were separated on polyacrylamide gels with SDS running buffer (50 mM Tris, 380 mM Glycine, 7 mM SDS) and transferred to nitrocellulose blotting membranes. All membranes were blocked with blocking buffer (5% (m/v) milk powder (BioRad) in TBST (Tris-Buffered Saline with Tween: 50 mM Tris (tris (hydroxymethyl)aminomethane), 150 mM NaCl, 0.05% (v/v) Tween 20, adjusted to pH 7.6). Proteins were probed with antibodies against BRD4 (ab128874, 1:1000, Abcam), Actin (ab16039, 1:1000, Abcam), MTHFD1 (ab70203, Abcam; H120, Santa Cruz; A8, Santa Cruz; all used at 1:1000), GFP (G10362, 1:1000, Life Technology), RCC1 (C-20, 1:1000, Santa Cruz), β-Tubulin (T-4026, 1:1000, Sigma), SHMT1 (ab186130, 1:1000, Abcam) and H2B (ab156197, 1:1000, Abcam) and detected by HRP (horseradish peroxidase) conjugated donkey anti-rabbit IgG antibody (ab16284, 1:5000, Abcam) or donkey anti-mouse IgG antibody (Pierce) and visualized with the Pierce ECL Western Blotting substrate (Amersham), according to the provided protocol.

Compound | sensitivity to (S)-JQ1 after shRNA for MTHFD1 (A549 cells) | tumor growth (A549 xenograft) | effect on BRD4-MTHFD1 interaction in MTHFD1 pull-down (BRD4-MTHFD1 interaction) | sensitivity of cell lines to single treatment (dose response curves) [1] | diploidization of WT-KBM7 (cell cycle profile) (WT-KBM7 cells) | RFP expression detected by live cell imaging (BRD4; REDS1 cells, 1 μM, 24 hours (FIG. 7B)) | expression of the reporter gene RFP in REDS detected by FACS (BRD4; REDS clones, 0.5 μM (S)-JQ1 (FIG. 6A)) | changes in the nuclear folate pool (nuclear folate pool) | BRD4 levels on chromatin after MTX (chromatin-bound BRD4) | MTHFD1 (or SHMT1) nuclear localization [2] | Redness after MTX treatment (BRD4; REDS reporter cells, three days of MTX (FIG. 13C))
Cc1sc2c(c1C)C(c1ccc(Cl)cc1)=N[C@@H](CC(=O)OC(C)(C)C)c1nnc(C)n1-2 [(S)-JQ1] | increased sensitivity | not impaired | unaffected | low sensitivity | induced WT-KBM7 diploidization | robustly expressed RFP | rapid and consistent expression of the reporter gene red fluorescent protein (RFP) |  |  |  | 
CN(Cc1cnc2nc(N)nc(N)c2n1)c1ccc(C(=O)N[C@@H](CCC(=O)O)C(=O)O)cc1 [MTX, methotrexate] |  | not impaired | unaffected | moderate to low sensitivity |  |  |  | highly correlated characteristic changes specifically in the nuclear folate pool | did not affect BRD4 levels | not impairing MTHFD1 (or SHMT1) nuclear localization | only weakly increased
